Measured values: a melting point compilation (Tetko et al.; mined from patent text by program, amines drawn as free bases though some values may be those of a salt)

SMILES | melting point [°C]
Cc1cc(OCc2coc(/C=C/c3ccc(S(=O)C(F)(F)F)cc3)n2)ccc1CCCCn1ccnn1 (stereo not given) | 113 to 114
CCCC(=O)C1=C(O)CC(c2c(C)c(C)c(C)c(C)c2S(C)(=O)=O)CC1=O (stereo not given) | 132
CS(=O)(=O)OCCN(CCCl)c1ccc([N+](=O)[O-])c(C(=O)NCCCO)c1[N+](=O)[O-] | 104 to 109
COc1ccc(C)c(NC(=O)CCl)c1 | 89 to 91
O=C(c1ccc(-c2ccc(Cl)cc2)cc1)N1CCCc2cc(C=CCN3CCCCC3)ccc21 | 141 to 143
CC#CCOc1cc(Oc2ccc(F)c(F)c2)ncn1 | 110
CS(=O)(=O)c1ccc(-c2cnn(CC(F)(F)F)c(=O)c2Nc2cc(F)cc(F)c2F)cc1 | 190 to 194
CC(=O)N1CC(=O)N(CC(N)=O)C1(C)C | 188 to 189
Cc1nc(-n2cnn(Cc3ccc(C(F)(F)F)cc3)c2=O)sc1C(=O)NCc1cccnc1 | 156 to 158
CCSc1nc(N)nc2c1ncn2C1C=CC(CO)C1 (stereo not given) | 123 to 125
CCSc1nc2c(C(=S)OC)sc(C)c2[nH]1 | 170 to 172
O=[N+]([O-])c1cnn2c(-c3ccc(C(F)(F)F)cc3)ccnc12 | 191 to 193
COCc1nc2c(N)nc3c(c2n1CC(C)(C)OCCS(C)(=O)=O)CCCC3 | 195 to 197
N#Cc1ncn2c(C(F)(F)F)cc(-c3ccc(C(F)(F)F)cc3)nc12 | 236
C=CCN1CCn2c1nc1ccc(Cl)cc1c2=O | 91 to 93
CCOC(=O)Nc1c([N+](=O)[O-])cc(C)c(C)c1[N+](=O)[O-] | 51 to 54
N#CSCCNc1ccc([N+](=O)[O-])cc1Cl | 148 to 150
COc1cc(CNC=O)ccc1O | 83.5
Nc1c(Cl)cc(C(O)CNC2CC2)cc1C(F)(F)F (stereo not given) | 138 to 139
CCCCc1nc(=O)c2cc(-c3nnn[nH]3)ccc2[nH]1 | 225
CC(=O)OCCC(=O)C1CCC2C3CCC4CC(O)CCC4(C)C3C(=O)CC12C (stereo not given) | 113 to 115
CCCCCS(=O)(=O)NC(=O)CCc1cc(OCCCC)nn1Cc1ccc(Cl)cc1Cl | 104 to 105
Fc1ccc(-c2nn3c(c2-c2ccncc2)NCCC3)cc1 | 207 to 209
Clc1cncc(Cl)c1C1=NC(c2ccc(I)cc2)CO1 (stereo not given) | 90 to 92
CN1CCN(CC(=O)NC2(c3ccc(Cl)cc3)C(=O)Nc3cc(Cl)cc(Cl)c32)CC1 (stereo not given) | 248 to 251
COCOc1cc(CBr)c2nc3cccc(OCOC)c3nc2c1 | 167 to 168
Fc1ccc(Cn2c(NC3CCN(CCc4ccccn4)CC3)nc3ccccc32)cc1 | 133

SMILES | melting point [°C]
COC(=O)[C@@H]1C[C@@H](O)CN1C(=O)c1ccc(C#N)cc1 | 101 to 102
Cc1cccc(C)c1N(CC(C)OS(C)(=O)=O)S(C)(=O)=O (stereo not given) | 111 to 114
Cc1ccc(-c2nc3cc([N+](=O)[O-])ccc3o2)o1 | 182 to 184
Cc1nc2c(C(F)(F)F)cccc2c(=O)n1C1CCC(=O)NC1=O (stereo not given) | 351 to 353
O=C(O)C(=O)Nc1nccs1 | 174 to 177
Cc1ccc(C(=O)N[C@H](CSCC(=O)OC(C)(C)C)CC(C)C)s1 | 81 to 83
COc1cc(OC)nc(NC(=O)CC(F)=C(F)F)n1 | 127 to 130
O=c1[nH]c2cscc2c(=O)n1CCN1CCN(c2ccccc2)CC1 | > 250
COc1ccc2c(c1)OC[C@@H]1CCCN1C2=O | 104 to 106
CC(C)(N=NC(C)(C)C(=O)NC1CCCCC1)C(=O)NC1CCCCC1 | 116
O=Cc1ccc(N2CCN(c3ccncc3)CC2)cc1 | 116 to 118
CS(=O)(=O)OCC[C@H](CCCCC(=O)O)OS(C)(=O)=O | 54 to 55
O=C(Nc1ccc(Cl)cn1)c1cc(Cl)ccc1NCC1CCN(C2CCOCC2)CC1 | 192 to 194
Cc1cc(-c2ccc(C(F)(F)F)cc2)cn2c(-c3nc(-c4ccnc(N)c4)no3)cnc12 | 264
CCCCCCCCCCCCCCCCCNC(=O)OC[C@@H]1CO[C@@H](COC(=O)NCc2ccccn2)C1 (relative stereo) | 52.7 to 54.8
COc1ccc(CNc2n[nH]cc2C)cc1OC1CCCC1 | 76 to 77
O=C(C#Cc1ccc(C(F)(F)F)cc1Cl)Nc1ccc(OCCn2cnnc2)cc1 | 223 to 227
CSc1noc(-c2ccc(OCCOc3ccc(Br)cc3)cc2)c1C#N | 156 to 157
CCOC(=O)CC(=O)Nc1ccc(S)cc1 | 69
Cc1cccc(Cl)c1N1CCCN(C)C1=S | 164 to 165
COc1cc2ncnc(N3CCN(C(=S)Nc4cccc(NC(C)=O)c4)CC3)c2cc1OC | 207 to 208
CCOC(=O)Nc1ccc2c(c1)C(c1ccccc1Cl)SCCC(=O)N2 (stereo not given) | 229 to 231
CC(=O)NCC1CC1c1cccc2nnsc12 (stereo not given) | 81 to 82
CCOC(=O)c1ccccc1S(=O)(=O)NC(=O)Nc1nc(Cl)cc(OC(F)(F)F)n1 | 148 to 151
NC(=O)Cc1cc(Oc2ccc3c(ccn3C(=O)Nc3ccc(-c4cccnc4)c(C(F)(F)F)c3)c2)ncn1 | 171 to 172
N#Cc1cccc2nnsc12 | 114 to 117

More lines, now with the values ahead:

melting point [°C] | SMILES
155 to 157 | NC(=O)N(O)CC#Cc1cccc(C2=N[C@H](c3ccccc3)CS2)c1
85 to 90 | O=[N+]([O-])c1ccccc1C(O)c1cc2c(Oc3ccc(Cl)cc3)cncc2s1 (stereo not given)
171 to 173 | O=C(O)c1cc2c(OC[C@@H](O)CN3CCC(c4ccc5ccccc5c4)CC3)cccc2[nH]1
47.3 to 48.5 | OCC1CCC(c2ccccc2)CC1 (stereo not given)
228 to 230 | Cc1c(-c2ccc(O)cc2)sc(C=O)c1-c1ccc(O)c(C=O)c1
140 to 142 | COC(=O)C(CNC(=O)C1CC1)c1cccc2ccccc12 (stereo not given)
86 to 88 | CC1(C)OC(=O)N2CCN(C(=O)OCc3ccccc3)CC21 (stereo not given)
167 to 169 | COc1ccc2[nH]c(C(=O)c3ccc(F)cc3)cc2c1
202 to 208 | O=c1[nH]c2ccc([C@H]3CC[C@H](NCCS(=O)(=O)c4ccccc4)CC3)cc2o1
171 to 172 | O=C1c2ccccc2C(=O)N1CCCOc1cccc2[nH]c3ccccc3c12
135 to 137 | COc1ccc(N2Cc3ccccc3P2(=O)C(C)C)cc1 (stereo not given)
138 to 140 | O=c1[nH]c2ccc(S(=O)CCN3CCC(O)(Cc4ccccc4)CC3)cc2o1 (stereo not given)
142 to 144 | Cc1cc(C(O)(C(F)(F)F)C(F)(F)F)cc(C)c1OCC(=O)NCc1ccccc1
63 to 65 | COc1cc(OC)cc(Sc2ccc([N+](=O)[O-])cc2)c1
118 to 120 | CC(C)C[C@@H](CO)NC(=O)[C@H](Cc1c[nH]cn1)NC(=O)[C@H](Cc1cccc2ccccc12)NC(=O)OCC1c2ccccc2-c2ccccc21
109 | CCOC(=O)CCc1cc2ccccc2c(-c2ccccc2)n1
195 to 197 | COc1nc(CC(=O)O)ccc1NC(=O)Nc1ccccc1Br
133 to 135 | COc1cccc([C@H]2O[C@H](CC(=O)N[C@@H](C)C(=O)O)C(=O)N(CC(C)(C)CO)c3ccc(Cl)cc32)c1OC
70.1 to 71 | O=C(NCCc1ccccc1Cl)c1ccccc1
136 | CCOC(=O)C(C(=O)CCC(C)C)C1c2nccnc2C(=O)N1c1ccc2ccc(Cl)nc2n1 (stereo not given)
110 to 113 | CC(=O)O[C@@H]1NC(=O)[C@H]1NC(=O)OCc1ccccc1
253 to 255 | O=C(O)c1cccc2c1sc1ccccc12
127 to 131 | COC(=O)CCCc1cc2cc(Cl)ccc2n1S(=O)(=O)c1ccc2c(ccn2C(C)=O)c1
140 to 141 | O=C(c1ccc(F)cc1)C1CCN(C(=O)CCc2ccc(OCc3ccccc3)cc2OCc2ccccc2)CC1

melting point [°C] | SMILES
224 to 225 | CC(=O)c1ccc(Cn2ccc3c4c(N)nc(N)nc4ccc32)cc1
148 to 152 | COc1ccc(C(=O)c2cccc3[nH]ccc23)cc1
221 to 223 | Oc1ccc2nc(-c3cccc4c(Br)c(O)ccc34)oc2c1
168 to 169 | COc1ccc(NC(=O)c2ccc([N+](=O)[O-])c(OC)c2)cc1
108 to 110 | OC(C=Cc1ccccc1)Cn1ccnc1 (stereo not given)
138 | Cc1cc(COc2ccc(S(=O)(=O)NC[C@@H](C(=O)NO)N3CCOCC3)cc2)c2ccccc2n1
215 to 217 | CC(C)N1C(=O)C2Cc3c(nc(C(=O)c4ccccc4)n3Cc3ccccc3)CN2C1=O (stereo not given)
114 | O=C(c1ccc(F)cc1)C1CCN(CCCN2c3ccccc3-c3ccccc3S2(=O)=O)CC1
170 to 172 | CC(CSC(=O)Nc1ccccc1)C(=O)N(CC(=O)O)C1CCCC1 (stereo not given)
180 | COC(=O)Cc1cccc(-c2nc(=O)c3ccccc3s2)n1
121 to 125 | NC(Cc1cccc2c(Cl)cccc12)=NO
75 to 76 | CCN(CC)CCCNC(=O)Cn1ncc(-c2ccc(N)cc2)c1-c1ccccc1
140 to 141 | CC(C)[C@H](N=Cc1cccc(-c2ccccc2)c1O)C(=O)O
167 to 168 | NS(=O)(=O)c1cc(Cc2ccccc2)c(O)c2ccccc12
193 to 194 | N#Cc1cn(-c2ccc([N+](=O)[O-])c(N)c2)cc1-c1ccccc1
234 to 236 | O=c1c2cc(F)c(N3CCCC3)cc2n(Cc2ccccc2)c(=O)n1O
171 to 172 | C=CC(C)(C)CC(NC(=O)c1ccc(Cl)cc1)NC(=NC#N)Nc1cccnc1 (stereo not given)
87 to 89 | COC(=O)Cc1ccccc1SCc1cccc(OC)c1
88 to 91 | COc1ccc(CC[C@H]2CN(Cc3ccccc3)CCN2Cc2ccccc2)cc1
160 to 162 | Cc1cccc(Cl)c1NC(=O)Nc1ccc(CC(=O)NC(CC(C)C)c2ncc(CCC(=O)O)s2)cc1 (stereo not given)
132 to 134 | CC(C(=O)N(C)C)n1nc(-c2ccccc2)c(Br)c1Br (stereo not given)
202 to 204 | COC(=O)C(C#N)(Cc1ccc(-c2cccc(C(F)(F)F)c2)cc1)C(c1ccccc1OC)c1cccc2ccccc12 (stereo not given)
67 to 68 | CCOC(=O)C1N=CSC12CCN(Cc1ccccc1)CC2 (stereo not given)
